Results on 26 compounds are retold here after patent US9624228B2, “Inhibitors of ERK and methods of use” (KURA ONCOLOGY, INC., priority 2013, dated 2017).

For orientation: IC50 means the midpoint of a concentration-inhibition curve.

ERK2 enzyme, sequence (P28482 whole entry): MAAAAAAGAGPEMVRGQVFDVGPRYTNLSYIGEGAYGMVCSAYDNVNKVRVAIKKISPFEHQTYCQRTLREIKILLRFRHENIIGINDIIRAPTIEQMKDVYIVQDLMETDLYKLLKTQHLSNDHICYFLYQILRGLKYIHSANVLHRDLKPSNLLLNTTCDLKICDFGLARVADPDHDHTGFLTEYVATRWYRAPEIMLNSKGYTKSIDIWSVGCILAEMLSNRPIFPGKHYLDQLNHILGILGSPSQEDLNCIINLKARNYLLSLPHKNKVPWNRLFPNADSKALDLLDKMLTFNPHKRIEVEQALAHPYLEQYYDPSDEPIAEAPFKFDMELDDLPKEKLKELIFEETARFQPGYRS

In the first test the target is ERK2 enzyme (Homo sapiens (Human), UniProt P28482). As to the kind of experiment: Inhibition assay of ERK (Z'-LYTE kinase assay, Ser/Thr 3 peptide substrate). Type of test: biochemical. Particulars: In vitro ERK2 enzyme, 100 μM ATP. Here is the method:
The inhibition of ERK activity by the compounds disclosed herein was determined using the Z′-LYTE kinase assay kit (Life Technologies) with a Ser/Thr 3 peptide substrate (Life Technologies) according to manufacturers' instructions. […] The IC50 values for the compounds were determined with 3-fold serial dilutions in duplicate. […] The final DMSO concentration in the assay was 1%. Final reaction volume was 20 μL/well in 384-well plates. Kinase reactions were conducted or 1 hour followed by the assay development reaction (1 hour) in a 20 ul/well in a 384 well plate format.
With `Cc1cc(-c2n[nH]c3cc4c(cc23)CN([C@@H]2CCCN(Cc3csc(C)n3)C2)C(=O)N4)ccn1` [Compound 140], the IC50 is below 50 nM.

Compound `O=C1Nc2cc3[nH]nc(-c4cn[nH]c4)c3cc2CN1Cc1ccc(F)c(Cl)c1` [Compound 48] registered an IC50 below 50 nM.

`Cc1cc(-c2n[nH]c3cc4c(cc23)CN(Cc2cccc(Cl)c2)C(=O)N4)ccn1` [Compound 4] came in with an IC50 below 50 nM.

As to `Cc1cc(-c2n[nH]c3cc4c(cc23)CN(C2CCOCC2)C(=O)N4)ccn1` [Compound 44], the IC50 is below 50 nM.

As to `COc1ncc(-c2n[nH]c3cc4c(cc23)CN(CCN)C(=O)N4)cn1` [Compound 113], the IC50 is 50 to 250 nM.

`COc1ncc(-c2n[nH]c3cc4c(cc23)CN([C@@H]2CCCN(Cc3c(F)cccc3F)C2)C(=O)N4)cn1` [Compound 102] came in with an IC50 below 50 nM.

Compound `Cc1cc(-c2n[nH]c3cc4c(cc23)CN(CCc2ccc(F)cc2)CC(=O)N4)ccn1` [Compound 67] returned an IC50 of 250 to 1000 nM.

Regarding `Cc1cc(-c2n[nH]c3cc4c(cc23)CN([C@@H]2CCC[C@H](NCc3ccccc3)C2)C(=O)N4)ccn1` [Compound 177], the IC50 is below 50 nM.

`COc1ccc(-c2n[nH]c3cc4c(cc23)CN(Cc2cccc(Cl)c2)C(=O)N4)cn1` [Compound 75] showed an IC50 below 50 nM.

The compound `COc1ncc(-c2n[nH]c3cc4c(cc23)CN(Cc2cccc(Cl)c2)C(=O)N4)cn1` [Compound 68] yielded an IC50 below 50 nM.

In turn, `Cc1cc(-c2n[nH]c3cc4c(cc23)CN([C@@H]2CCCN(CC3CCCC3)C2)C(=O)N4)ccn1` [Compound 138] showed an IC50 of 50 to 250 nM.

In turn, `COc1ncc(-c2n[nH]c3cc4c(cc23)CN(Cc2cccc(C(F)(F)F)c2)C(=O)N4)cn1` [Compound 119] yielded an IC50 below 50 nM.

For `Cc1cc(-c2n[nH]c3cc4c(cc23)CN([C@H](C)c2cccc(Cl)c2)C(=O)N4)ccn1` [Compound 35], the IC50 was below 50 nM.

`Cc1cc(-c2n[nH]c3cc4c(cc23)CN(CCNCc2cccc(Cl)c2)C(=O)N4)ccn1` [Compound 176] returned an IC50 below 50 nM.

`Cc1cc(-c2n[nH]c3cc4c(cc23)CN([C@@H]2CCCN(Cc3cc(C5CC5)on3)C2)C(=O)N4)ccn1` [Compound 188] returned a concentration for half-maximal inhibition (IC50) below 50 nM.

Staying with this test, now noted: In vitro, ERK2 enzyme 0.47 ng/μL, 100 μM ATP.
On to `COc1cc(-c2n[nH]c3cc4c(cc23)CN([C@@H]2CN(C)C[C@H]2c2ccccc2)C(=O)N4)ccn1` (mixture of isomers) [Compound 354], for which the half-inhibitory concentration (IC50) was below 50 nM.

`COc1ncc(-c2n[nH]c3cc4c(cc23)CN([C@@H]2CCCN(Cc3cccs3)C2)C(=O)N4)cn1` [Compound 295] returned an IC50 below 50 nM.

In the case of `Cn1cc(-c2n[nH]c3cc4c(cc23)CN([C@@H]2CN(CC(F)(F)F)C[C@H]2c2ccccc2)C(=O)N4)ccc1=O` [Compound 346], the IC50 was below 50 nM.

In turn, `CC(c1ccccc1)c1cc2cc3c(NC4CCOCC4)n[nH]c3cc2[nH]c1=O` (centres unmarked) [Compound 338] registered an IC50 below 50 nM.

The compound `CC(c1ccccc1)c1cc2cc3c(-c4ccncc4)n[nH]c3cc2[nH]c1=O` (centres unmarked) [Compound 326] yielded an IC50 below 50 nM.

The compound `Cc1cc(-c2n[nH]c3cc4c(cc23)CN([C@@H]2CN(CCC#N)C[C@H]2c2ccccc2)C(=O)N4)ccn1` (mixture of isomers) [Compound 356] gave an IC50 below 50 nM.

In the case of `Cc1cc(-c2n[nH]c3cc4c(cc23)CN([C@@H]2CN(CC(F)(F)F)C[C@H]2c2ccccc2)C(=O)N4)ccn1` [Compound 304], the IC50 is below 50 nM.

Consider `Cc1cc(-c2n[nH]c3cc4c(cc23)CN([C@@H]2CN(Cc3ccccc3)CC(F)(F)C2)C(=O)N4)ccn1` [Compound 263], for which the IC50 fell in the range of 250 to 1000 nM.

The compound `Cc1cc(-c2n[nH]c3cc4c(cc23)CN(Cc2cccs2)C(=O)N4)cc(C)n1` [Compound 227] returned an IC50 below 50 nM.

Regarding `Cn1cc(-c2n[nH]c3cc4c(cc23)CN([C@@H]2CN(CC(F)(F)F)C[C@H]2c2ccccc2)C(=O)N4)cn1` [Compound 352], the IC50 is below 50 nM.

For the compound `Cc1cc(-c2n[nH]c3cc4c(cc23)CN([C@@H]2CCCN(C3CCC3)C2)C(=O)N4)ccn1` [Compound 210], the IC50 fell in the range of 50 to 250 nM.
